Like-named read-outs stand apart in the source and are kept apart here.
Key:
[1] = biological target: T1, β-galactosidase from E. coli (Escherichia coli, UniProt P00722); experiment: Glycosidase inhibition, p-nitrophenolate assay; assay type: biochemical; conditions: mean of triplicate experiments
T1 construct: purchased
Protocol: (§1) An in vitro evaluation of these compounds to act as an enzyme inhibitor using a panel of commercially available glycosidases was performed (Table 1) using p-nitrophenolate assays.
(§2) The corresponding p-nitrophenyl glycoside and the inhibitors were dissolved in NaOAc buffer (0.05 M, pH = 6.0) reaching final concentrations of 1.0, 1.11, 1.25, 1.43, 1.67, 2.0, 2.5, 3.33, 5.0, and 10 mM. Further dilutions (if necessary) were made in the ratios 1:60, 1:50, 1:40, 1:30, 1:20, 1:10, and 1:5. The ice-cooled solution of the enzymes was contained between 4.0 and 4.5 U/mL. The kinetic assays were performed in 96-well microtiter plates. The following solutions were pipetted per well: p-nitrophenyl glycoside (100 μL), enzyme (50 μL), inhibitor (100 μL), and standard (p-nitrophenol, 5 μL). Immediately after addition, UV/Vis absorption was measured at 42 °C and λ = 415 nm for 20 min with a single measurement interval of 50 s.

[2] = biological target: β-glucosidase from almonds; experiment: Glycosidase inhibition, p-nitrophenolate assay; assay type: biochemical; conditions: mean of triplicate experiments, n.a. = no activity
Protocol: as §1, §2

[3] = biological target: T2, α-galactosidase from green coffee beans (Coffea arabica, UniProt Q42656); experiment: Glycosidase inhibition, p-nitrophenolate assay; assay type: biochemical; conditions: mean of triplicate experiments
T2 construct: purchased
T2 sequence (Q42656 16-378): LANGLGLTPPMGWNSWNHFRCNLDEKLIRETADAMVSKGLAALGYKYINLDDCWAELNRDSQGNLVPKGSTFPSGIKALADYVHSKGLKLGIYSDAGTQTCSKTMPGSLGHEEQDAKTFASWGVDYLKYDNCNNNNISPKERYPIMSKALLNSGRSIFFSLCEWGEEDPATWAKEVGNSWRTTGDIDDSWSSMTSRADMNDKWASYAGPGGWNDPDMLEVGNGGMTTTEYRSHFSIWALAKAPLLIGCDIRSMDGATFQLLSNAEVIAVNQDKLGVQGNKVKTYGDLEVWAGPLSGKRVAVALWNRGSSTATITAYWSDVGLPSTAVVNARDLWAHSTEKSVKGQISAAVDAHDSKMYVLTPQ
Protocol: as §1, §2

[4] = biological target: T3, α-glucosidase from Baker’s yeast (Saccharomyces cerevisiae, UniProt P53341); experiment: Glycosidase inhibition, p-nitrophenolate assay; assay type: biochemical
T3 construct: purchased
T3 sequence (P53341 whole entry): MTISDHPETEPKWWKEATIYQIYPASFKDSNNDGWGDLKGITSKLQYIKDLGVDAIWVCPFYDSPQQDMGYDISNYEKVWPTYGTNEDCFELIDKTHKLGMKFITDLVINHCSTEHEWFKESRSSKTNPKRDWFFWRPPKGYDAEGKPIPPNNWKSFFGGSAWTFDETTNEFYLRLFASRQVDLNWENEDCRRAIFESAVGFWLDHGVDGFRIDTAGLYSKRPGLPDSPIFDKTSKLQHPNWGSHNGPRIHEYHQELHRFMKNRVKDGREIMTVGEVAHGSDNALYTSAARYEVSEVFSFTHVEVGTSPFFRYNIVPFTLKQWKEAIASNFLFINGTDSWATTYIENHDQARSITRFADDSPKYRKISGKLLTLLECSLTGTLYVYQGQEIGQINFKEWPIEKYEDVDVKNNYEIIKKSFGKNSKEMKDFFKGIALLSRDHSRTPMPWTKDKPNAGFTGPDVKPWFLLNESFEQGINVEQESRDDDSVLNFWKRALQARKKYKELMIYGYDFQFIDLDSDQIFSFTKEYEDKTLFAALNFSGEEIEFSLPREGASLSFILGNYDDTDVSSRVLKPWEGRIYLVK
Protocol: as §1, §2

[5] = Cytotoxicity, sulforhodamine B (SRB) assay, cancer cell panel; assay type: cell-based, human; conditions: for EC50 at 3 days: as restated in the conclusion, human cancer cell lines, read-out: EC50, cytotoxicity (SRB assays); for IC50 at 3 days: panel of 15 human cancer cell lines, no significant cytotoxicity
Protocol: (§3) Low or absent cytotoxicity is a mandatory requirement for subsequent therapeutic use of the compounds as glycosidase inhibitors. Therefore, their cytotoxicity was determined.
(§4) The cell lines were obtained from Department of oncology (Martin-Luther-University Halle-Wittenberg). Cultures were maintained as monolayers in RPMI 1640 medium with L-glutamine (Capricorn Scientific GmbH, Ebsdorfergrund, Germany) supplemented with 10% heat inactivated fetal bovine serum (Sigma-Aldrich Chemie GmbH, Steinheim, Germany) and penicillin/streptomycin (1%, Capricorn Scientific GmbH, Ebsdorfergrund, Germany) at 37 °C in a humidified atmosphere with 5% CO2.
(§5) The cytotoxicity of the compounds was evaluated using the SRB (Kiton-Red S, ABCR) micro culture colorimetric assay using […] cells in 96-well plates with the seeding of the cells on day 0 applying appropriate cell densities to prevent confluence of the cells during the period of the experiment. On day 1, the cells were treated with six different concentrations (1, 3, 7, 12, 20, and 30 μM); thereby, the final concentration of DMSO was always < 0.5%, generally regarded as nontoxic to the cells. On day 4, the supernatant medium was discarded; the cells were fixed with 10% trichloroacetic acid. After another day at 4 °C, the cells were washed in a strip washer and dyed with the SRB solution (100 μL, 0.4% in 1% acetic acid) for about 20 min to be followed by washing of the plates (four times, 1% acetic acid) and air-drying overnight. Furthermore, tris base solution (200 μL, 10 mM) was added to each well and absorbance was measured at λ = 570 nm employing a reader (96-wells, Tecan Spectra, Crailsheim, Germany).

[6] = Cytotoxicity, sulforhodamine B (SRB) assay, nonmalignant cells; assay type: cell-based, mouse; conditions: NIH 3T3 fibroblasts (nonmalignant); for IC50 at 3 days: nonmalignant NIH 3T3 mouse fibroblasts, no significant cytotoxicity; for EC50 at 3 days: mouse, as restated in the conclusion, NIH 3T3, read-out: EC50, cytotoxicity (SRB assays)
Protocol: as §3, §4, §5

[7] = tested on: panel of commercially available glycosidases; experiment: Glycosidase panel, type of inhibition and selectivity (p-nitrophenolate assays); assay type: biochemical; conditions: panel of five glycosidases
Protocol: as §1, §2

[8] = p-nitrophenolate assay, mean of triplicate experiments, read-out: Ki, α-glucosidase from Baker’s yeast

T1 sequence (P00722 2-1024 limits assumed): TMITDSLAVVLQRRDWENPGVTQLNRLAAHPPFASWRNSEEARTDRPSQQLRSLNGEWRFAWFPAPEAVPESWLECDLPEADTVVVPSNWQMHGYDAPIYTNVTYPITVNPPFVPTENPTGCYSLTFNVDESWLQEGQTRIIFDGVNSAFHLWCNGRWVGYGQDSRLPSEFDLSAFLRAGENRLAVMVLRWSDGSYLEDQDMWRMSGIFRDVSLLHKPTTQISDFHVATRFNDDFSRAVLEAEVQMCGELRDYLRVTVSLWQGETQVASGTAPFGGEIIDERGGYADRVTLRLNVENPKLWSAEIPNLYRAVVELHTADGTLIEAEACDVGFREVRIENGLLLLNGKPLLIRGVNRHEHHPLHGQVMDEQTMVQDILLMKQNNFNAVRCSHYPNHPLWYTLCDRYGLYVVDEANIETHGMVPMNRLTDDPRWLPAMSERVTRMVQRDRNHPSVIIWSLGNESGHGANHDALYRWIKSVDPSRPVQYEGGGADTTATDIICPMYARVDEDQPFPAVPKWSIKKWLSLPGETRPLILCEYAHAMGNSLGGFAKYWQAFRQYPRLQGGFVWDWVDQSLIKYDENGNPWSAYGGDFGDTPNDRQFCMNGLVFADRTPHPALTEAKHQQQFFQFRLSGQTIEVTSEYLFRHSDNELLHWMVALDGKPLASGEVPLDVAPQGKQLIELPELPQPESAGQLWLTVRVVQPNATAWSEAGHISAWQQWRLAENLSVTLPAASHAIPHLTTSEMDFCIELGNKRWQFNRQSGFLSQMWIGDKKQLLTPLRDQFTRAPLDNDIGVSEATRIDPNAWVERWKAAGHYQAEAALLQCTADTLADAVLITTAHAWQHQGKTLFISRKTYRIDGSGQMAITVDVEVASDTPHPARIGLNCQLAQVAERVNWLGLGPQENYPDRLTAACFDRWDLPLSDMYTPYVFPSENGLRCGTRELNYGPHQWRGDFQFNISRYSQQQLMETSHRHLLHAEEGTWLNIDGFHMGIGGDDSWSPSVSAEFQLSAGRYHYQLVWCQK

Compound CCCO[C@@H]1O[C@H](CN)[C@@H](O)[C@H](O)C1(F)F [compound 8, n-Propyl 6-amino-2,6-dideoxy-2,2-difluoro-β-D-glucopyranoside] has a Ki [1] of 0.5 ± 0.09 µM, a Ki [2] of 1.76 ± 0.13 µM and a Ki [3] of 3.81 ± 0.57 µM. The Ki [4, 8] was 1.83 ± 0.16 µM, the EC50 at 3 days [5] was greater than 50 µM and the IC50 at 3 days [5] was greater than 50 µM. For the same compound, the IC50 at 3 days [6] was greater than 50 µM, the EC50 at 3 days [6] was greater than 50 µM and the “selectivity among the glycosidases” value [7] was “nonselective inhibitor”.

With OCCN1C[C@H](O)[C@@H](O)[C@H](O)[C@H]1CO [Miglitol, reference compound] the Ki [1] was 0.16 ± 0.06 µM, the Ki [2] was 0.21 ± 0.05 µM and the Ki [3] was 13.9 ± 0.15 µM. For the same compound, the Ki [4] was 9.92 ± 0.14 µM.

For CCCO[C@@H]1O[C@H](CN)[C@@H](O)C(F)(F)[C@H]1O [compound 16, n-Propyl 6-amino-3,6-dideoxy-3,3-difluoro-β-D-ribo-hexopyranoside], the Ki [1] was 2.16 ± 0.93 µM, the Ki [3] was 4.3 ± 0.24 µM and the Ki [4, 8] was 4.13 ± 0.26 µM. For the same compound, the EC50 at 3 days [5] was greater than 50 µM, the IC50 at 3 days [5] was greater than 50 µM and the IC50 at 3 days [6] was greater than 50 µM. For the same compound, the EC50 at 3 days [6] was greater than 50 µM.
